Test results taken from article PMC8400042, “Selective DNA Gyrase Inhibitors: Multi-Target in Silico Profiling with 3D-Pharmacophores” (Pharmaceuticals, 2021).
Read-outs that look alike come from different tables or passages of the source. Each block holds one molecule with its values, some of them ahead of it.

Assays:
human Hsp90α NTD [1] = biological target: T1, human Hsp90α NTD (Homo sapiens, UniProt P07900); test: fluorescence-based thermal shift assay (FTSA), binding to Hsp90; details: for Kd: FTSA
T1 construct: Production and purification of recombinant Hsp90α NTD have been described previously; made in house
Method: Production and purification of recombinant Hsp90α NTD have been described previously. The molecular weight of the protein has been confirmed by high-resolution mass spectrometry, purity by SDS-PAGE, and the concentration was determined by UV-VIS spectrophotometry at 280 nm. The synthesis, chemical structure determination, and purity of compounds 1-7 have been previously described.
Compound binding to Hsp90 was determined by the fluorescence-based thermal shift assay (FTSA) which determines the thermal stability of the free and ligand-bound protein [61, 62, 63]. The stabilization efficiency is directly related to the ligand-binding affinity. The experiments were carried out with Corbett Rotor-Gene 6000 (QIAGEN Rotor-Gene Q) spectrofluorimeter (using excitation 365 ± 20 nm and detection at 460 ± 15 nm). Protein solutions in the presence of various concentrations of a compound were heated from 25 to 95 °C at a rate of 1 °C/min. Protein unfolding was monitored by measuring the fluorescence of 8-anilino-1-naphthalenesulfonate (ANS) dye at added 50 μM concentration. Increasing concentration of a compound shifted the protein denaturation temperature increasingly upwards depending on the binding affinity. Samples contained 5 μM protein, ligand concentration ranging from 0 to 200 μM, […] (pH 7.5) containing […] and 2% DMSO. Protein melting temperatures were determined by fitting the fluorescence curves while the compound dosing curves were simulated as described previously. All experiments were repeated at least twice.

human Hsp90α NTD [2] = biological target: T1, human Hsp90α NTD; test: as above; details: concentrations up to 100 μM
[3] = biological target: T2, human DNA topoisomerase IIα (Homo sapiens, UniProt P11388); test: human DNA topoisomerase IIα DNA relaxation assay (Inspiralis); type: biochemical; details: for IC50: DNA relaxation assay, read-out: Human TopoII IC50; for inhibition of TopoII (in words): concentrations up to 100 μM
T2 construct: purchased Inspiralis
Method: Inhibitory activities were determined in an assay from Inspiralis on streptavidin-coated 96-well microtitre plates from Thermo Scientific Pierce. […] After washing off the unbound oligonucleotide, the enzyme assay was performed. […] Reaction solutions were incubated at 37 °C for 30 min. After that, the TF buffer (50 mM NaOAc, 50 mM NaCl, and 50 mM MgCl2, pH 5.0) was added to terminate the enzymatic reaction. After additional incubation for 30 min at RT, during which biotin–oligonucleotide–plasmid triplex was formed, the unbound plasmid was washed off using TF buffer, and Diamond Dye in T10 buffer (10 mM Tris·HCl, 1 mM EDTA, pH 8.0) was added. […] Initial screening was done at 100 or 10 μM concentrations of inhibitors. […] GraphPad Prism 6 software was used to calculate the IC50 values. The results are reported as the average value of three independent measurements.

E. coli DNA gyrase [4] = biological target: T3, E. coli DNA gyrase (Escherichia coli, UniProt P0AES6); details: cited from earlier work
T3 construct: purchased Inspiralis

E. coli DNA gyrase [5] = biological target: T3, E. coli DNA gyrase; test: DNA supercoiling assay (Inspiralis); type: biochemical
Method: The DNA supercoiling assay from Inspiralis for the determination of IC50 values was performed according to previously reported procedures.

human Hsp90α NTD [6] = biological target: T1, human Hsp90α NTD; details: cited from earlier work
[7] = tested on: Hsp90 C-terminal domain (CTD); design: method as in PMID 10945979, PMID 10655441; details: cited from earlier work
human TopoII = tested on: human TopoII; design: method as in PMID 2537141; details: cited from earlier work
[8] = DNA supercoiling assay, read-out: E. coli DNA gyrase IC50

T2 sequence (P11388 whole entry): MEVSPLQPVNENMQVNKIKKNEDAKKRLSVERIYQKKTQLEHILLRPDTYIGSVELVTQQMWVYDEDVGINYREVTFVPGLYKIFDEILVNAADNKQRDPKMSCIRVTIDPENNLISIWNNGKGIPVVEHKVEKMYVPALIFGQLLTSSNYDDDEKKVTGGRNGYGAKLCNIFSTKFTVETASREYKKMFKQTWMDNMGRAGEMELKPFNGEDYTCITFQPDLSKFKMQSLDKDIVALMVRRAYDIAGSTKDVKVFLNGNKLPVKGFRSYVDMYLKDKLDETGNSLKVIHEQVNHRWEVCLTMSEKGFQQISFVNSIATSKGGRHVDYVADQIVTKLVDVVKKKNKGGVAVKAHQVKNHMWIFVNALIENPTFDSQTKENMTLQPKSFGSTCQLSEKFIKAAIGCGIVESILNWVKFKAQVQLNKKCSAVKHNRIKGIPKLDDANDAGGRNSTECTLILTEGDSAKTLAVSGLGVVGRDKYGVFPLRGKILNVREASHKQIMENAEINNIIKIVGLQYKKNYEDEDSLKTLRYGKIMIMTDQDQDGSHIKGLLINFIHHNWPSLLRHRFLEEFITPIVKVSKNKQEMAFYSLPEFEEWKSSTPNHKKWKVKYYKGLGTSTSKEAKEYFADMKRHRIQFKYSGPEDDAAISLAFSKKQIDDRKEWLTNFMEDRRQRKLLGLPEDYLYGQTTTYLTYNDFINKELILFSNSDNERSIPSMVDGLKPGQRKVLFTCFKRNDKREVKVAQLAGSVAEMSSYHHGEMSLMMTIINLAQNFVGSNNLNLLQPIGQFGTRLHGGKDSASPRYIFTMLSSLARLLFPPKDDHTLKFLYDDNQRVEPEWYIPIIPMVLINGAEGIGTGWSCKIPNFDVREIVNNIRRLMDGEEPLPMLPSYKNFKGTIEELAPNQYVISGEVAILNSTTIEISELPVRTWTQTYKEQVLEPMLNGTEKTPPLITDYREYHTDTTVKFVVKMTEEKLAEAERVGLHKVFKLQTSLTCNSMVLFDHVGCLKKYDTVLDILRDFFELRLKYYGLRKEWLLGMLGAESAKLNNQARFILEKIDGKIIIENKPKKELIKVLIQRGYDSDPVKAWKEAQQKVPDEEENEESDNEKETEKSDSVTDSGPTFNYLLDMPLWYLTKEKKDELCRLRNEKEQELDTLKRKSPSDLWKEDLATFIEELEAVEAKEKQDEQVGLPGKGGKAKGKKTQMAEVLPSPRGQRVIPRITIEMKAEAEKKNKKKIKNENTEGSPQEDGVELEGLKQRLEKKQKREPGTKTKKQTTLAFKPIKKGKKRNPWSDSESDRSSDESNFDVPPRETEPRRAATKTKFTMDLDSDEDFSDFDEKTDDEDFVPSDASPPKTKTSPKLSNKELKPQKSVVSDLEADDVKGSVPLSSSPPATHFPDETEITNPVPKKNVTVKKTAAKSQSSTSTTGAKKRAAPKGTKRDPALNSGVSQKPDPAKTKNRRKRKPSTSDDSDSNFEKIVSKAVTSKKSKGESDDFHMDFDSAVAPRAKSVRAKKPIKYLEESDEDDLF

- activity at Hsp90 in vitro (in words) (human Hsp90α NTD [1]): inactive
- Kd (human Hsp90α NTD [1]): > 100 µM
- binding to Hsp90α NTD (in words) (human Hsp90α NTD [2]): devoid of activity
- activity at TopoII in vitro (in words) [3]: inactive
- IC50 [3]: > 100 µM
- inhibition of TopoII (in words) [3]: devoid of activity
SMILES: O=C(O)C(=O)Nc1ccc2nc(NC(=O)c3cc(Cl)c(Cl)[nH]3)sc2c1 [Compound 1]

SMILES: Cc1[nH]c(C(=O)N[C@H]2CCc3nc(NC(=O)CC(=O)O)sc3C2)c(Br)c1Br [Compound 2]
- activity at Hsp90 in vitro (in words) (human Hsp90α NTD [1]): inactive
- Kd (human Hsp90α NTD [1]): > 100 µM
- binding to Hsp90α NTD (in words) (human Hsp90α NTD [2]): devoid of activity
- activity at TopoII in vitro (in words) [3]: inactive
- IC50 [3]: > 100 µM
- inhibition of TopoII (in words) [3]: devoid of activity
- IC50 (E. coli DNA gyrase [4]; DNA supercoiling assay, read-out: Escherichia coli DNA gyrase IC50): < 0.1 µM
- IC50 (E. coli DNA gyrase [4]; read-out: E. coli DNA gyrase IC50): 0.02 µM

SMILES: COc1ccc(-c2snnc2-c2cc(Cl)c(O)cc2O)cc1 [Compound 3]
- activity at TopoII in vitro (in words) [3]: no inhibition
- IC50 [3]: > 100 µM
- IC50 (E. coli DNA gyrase [5]): > 100 µM
- activity at GyrB / DNA gyrase in vitro (in words) (E. coli DNA gyrase [5]): no inhibition

SMILES: CC(C)Cc1cc(-c2nnsc2-c2ccccc2)c(O)cc1O [Compound 4]
- Kd (human Hsp90α NTD [6]): 0.0066 µM
- activity at TopoII in vitro (in words) [3]: no inhibition
- IC50 [3]: > 100 µM
- activity at GyrB / DNA gyrase in vitro (in words) (E. coli DNA gyrase [5]): no inhibition
- IC50 (E. coli DNA gyrase [5]; [8]): > 100 µM

SMILES: O=c1nc(SCc2cc(F)cc(C(F)(F)F)c2)nc(SCc2ccccc2F)[nH]1 [Compound 5]
- activity at Hsp90 in vitro (in words) (human Hsp90α NTD [1]): inactive
- Kd (human Hsp90α NTD [1]): > 100 µM
- activity at GyrB / DNA gyrase in vitro (in words) (E. coli DNA gyrase [5]): inactive
- IC50 (E. coli DNA gyrase [5]; [8]): > 100 µM

SMILES: O=c1nc(SCc2cc(F)cc(C(F)(F)F)c2)nc(SCc2ccc(Cl)cc2)[nH]1 [Compound 6]
- activity at Hsp90 in vitro (in words) (human Hsp90α NTD [1]): inactive
- Kd (human Hsp90α NTD [1]): > 100 µM
- activity at GyrB / DNA gyrase in vitro (in words) (E. coli DNA gyrase [5]): inactive
- IC50 (E. coli DNA gyrase [5]; [8]): > 100 µM

SMILES: NS(=O)(=O)c1c(F)c(F)c(SCCO)c(F)c1NC1CCCCCCC1 [Compound 7]
- activity at Hsp90 in vitro (in words) (human Hsp90α NTD [1]): inactive
- Kd (human Hsp90α NTD [1]): > 100 µM
- activity at TopoII in vitro (in words) [3]: inactive
- IC50 [3]: > 100 µM
- activity at GyrB / DNA gyrase in vitro (in words) (E. coli DNA gyrase [5]): inactive
- IC50 (E. coli DNA gyrase [5]; [8]): > 100 µM

SMILES: CO[C@@H]1[C@@H](OC(N)=O)[C@@H](O)[C@H](Oc2ccc3c(O)c(NC(=O)c4ccc(O)c(CC=C(C)C)c4)c(=O)oc3c2C)OC1(C)C [novobiocin]
- binding to allosteric binding site at Hsp90 CTD (in words) [7]: weakly bind
- inhibition of human TopoII (in words) (human TopoII): inhibit
